1 compound from patent publication US20100166726A1, “COMPOSITIONS FOR IMPROVING CELLULAR UPTAKE OF A CHEMOTHERAPEUTIC AGENT IN A CELL EXHIBITING MUCIN DEREGULATION” (NORTHEASTERN UNIVERSITY, priority 2007, published 2010) can be followed below.

Data set [1] deals with Capan-1 cells. Nature of the data set: Cellular toxicity of benzyl-α-GalNAc, sulforhodamine B assay. Conditions: 72 hr exposure. It is filed as cell-based, human. The protocol: (§1) O-glycosylation is critical for mucin formation. […] These cellular toxicity studies were performed as follows.
Data set [2] has as its system HPAF-II cells. The description is as above. The class given is cell-based, human. Conditions: 72 hr exposure. How it is done: as §1
The subject of data set [3] is Capan-1 cells. Nature of the data set: Cell viability and morphology after removal of benzyl-α-GalNAc. The class given is cell-based, human. How it is done: (§2) These experiments were conducted to determine whether the successful elimination of the glycosylated functional groups surrounding the MUC1 peptide core limit the capacity of cells to proliferate once benzyl-α-GalNAc has been removed. A significant change in cells' ability to multiply and divide due to exposure to benzyl-α-GalNAc would affect the measure of MUC1's role in our experiment. Capan-1 and HPAF-II cells were exposed to benzyl-α-GalNAc for 48 hr. Percent of cell viability was determined 24 hr, 48 hr, and 72 hr after removal of benzyl-α-GalNAc. […] Following 48 hr exposure to benzyl-α-GalNAc cells were washed with 1×PBS and then allowed to grow for an additional 24 hr, 48 hr, and 72 hr in fresh media.

In data set [4] the test system is HPAF-II cells. Described as above. It is filed as cell-based, human. How it is done: as §2
For data set [5], the system named is Capan-1 tumors. In words: Anti-tumoral activity in Capan-1 pancreatic tumor model (tumor volume, histochemical staining, neoplastic cell density). It is filed as in vivo, SCID mice. The protocol: All animal work was performed in the animal facility at Northeastern University, Boston, Mass. in accordance with the institutional guidelines. Female SCID (severe combined immunodeficient mice), 6 to 8 weeks old purchased from Massachusetts General Hospital, Boston, Mass. were used for our study since they have been used successfully for developing human xenografts of pancreatic tumors. To establish the tumors, 2.5×10^6 Capan-I cells in 0.1 ml of cell culture medium were injected into the subcutaneous dorsa of all mice. Mice were weighed daily using a digital weighing balance (AccuSeries®, Fisher Scientific, Arvada, Colo.) and tumor volumes were also measured every day using an electronic digital caliper (Control Company, Friendswood, Tex.). Tumor volumes were calculated using the formula a^2×b×0.52, where “a” is the longer diameter and “b” is the shorter diameter. Once the tumor volumes were approximately 50 mm^3-70 mm^3 the experimental groups received intratumoral injections of benzyl-α-GalNAc (0.1 ml injection; 10 mg/ml) whereas […] at intervals of 48 hr. When the tumor volumes were approximately 100 mm^3 5-FU was administered via the intravenous route. Animals in treatment groups received two injections (0.1 ml) of 5-FU at interval of 4 days whereas control mice received saline (0.1 ml). The total dose of 5-FU administered was 125 mg/kg. At the end of the experiment animals were sacrificed, tumor tissue was surgically removed and fixed in 10% formalin at 4° C. for histochemical staining.
For histochemical staining, paraffin-embedded tissue sections (5 μm) were stained with hematoxylin and eosin (H&E) to evaluate and compare the extent of tissue viability. The tumor sections were scanned and qualitative images captured using brightfield microscopy (Olympus BX61WI, NY). The number of tumor cells in each section was quantified using bioquant imaging software and expressed as percent of total tumor area. To quantify the total tumor area we first traced the outline of the entire tumor section in each field of view (FOV). The pixels within the traced area were then selected and the pixel count was determined by the software. A total of five FOV were analyzed to determine the total pixel count of the tumor area. Microscope stage encoders were used to ensure that no tumor area was counted more than once. Similarly the total pixel count of the neoplastic cells featured in blue in each FOV was determined. The total percent of neoplastic cell density was calculated as follows: […]
For these studies the pancreatic cell line, Capan-1 was used to used to establish a pancreatic tumor model. Capan-1 tumors were established in subcutaneous dorsa of female SCID mice (see, Example 7). […] 5-FU therapy began when the tumor size was approximately 100 mm^3.

For data set [6], the system named is HPAF-II cells. In words: 5-FU cytotoxicity with or without benzyl-α-GalNAc pre-exposure, sulforhodamine B assay. It is filed as cell-based, human. Conditions: 48 hr exposure followed by 5-FU (108 μmol/ml) 24 hr. The protocol:
The effects of increasing benzyl-α-GalNAc concentrations on cytotoxicity of 5-FU (108 μmol/ml) against HPAF-II cells was first tested. […] The growth inhibitory effect of 5-FU after 24 hr of exposure was determined using sulforhodamine B (Sigma-Aldrich, St. Louis, Mo.) assay the percent of viable cells was calculated as follows: […]

Data set [7] concerns Capan-1 cells. In words: Anti-MUC1 (CD227) antibody association after benzyl-α-GalNAc exposure (microplate fluorescence, FACS). It is filed as cell-based, human. The protocol: (§3) In order to determine whether the concentrations of benzyl-α-GalNAc employed are sufficient to inhibit MUC1 O-glycosylation, we observed the alterations in anti-MUC1 (CD227) association after exposure to the inhibitor. The antibody association studies were performed as follows. […] After each exposure time point the cells were washed with 1×PBS and 1 ml of fresh media was added to each well. The cells were then exposed to 4 μl/well of anti-MUC1 antibody.
(§4) Fluorescence-activated cell-sorting (FACS) analysis was then performed as follows. […] After 48 hr exposure to benzyl-α-GalNAc cells were washed with 1×PBS and 1 ml of fresh media was added to each well. The cells were then exposed to 4 μl/well of CD227 antibody. Following 24 hr incubation with the antibody, cells were washed with 1×PBS to remove any unassociated antibody and cells were detached using 0.5 ml/well trypsin. Cells were then washed with 1×PBS and antibody association was determined using FACS analysis.

The test system of data set [8] is HPAF-II cells. The description is as above. The class given is cell-based, human. How it is done:
as §3, §4

The test system of data set [9] is Capan-1 tumors. Nature of the data set: MUC1 carbohydrate staining of tumors after intratumoral benzyl-α-GalNAc. It is filed as in vivo, SCID mice. To be noted: four intratumoral injections (10 mg/ml, 0.1 cc) at intervals of 48 hr. How it is done:
(§5) All animal work was performed in the animal facility at Northeastern University, Boston, Mass. in accordance with the institutional guidelines. Female SCID (severe combined immunodeficient mice), 6 to 8 weeks old purchased from Massachusetts General Hospital, Boston, Mass. were used for our study since they have been used successfully for developing human xenografts of pancreatic tumors. To establish the tumors, 2.5×10^6 Capan-I cells in 0.1 ml of cell culture medium were injected into the subcutaneous dorsa of all mice. Mice were weighed daily using a digital weighing balance (AccuSeries®, Fisher Scientific, Arvada, Colo.) and tumor volumes were also measured every day using an electronic digital caliper (Control Company, Friendswood, Tex.). Tumor volumes were calculated using the formula a^2×b×0.52, where “a” is the longer diameter and “b” is the shorter diameter. […]
(§6) In order to test the in vivo effect of Benzyl-α-GalNAc in a pancreatic tumor model, Benzyl-α-GalNAc was administered locally into the tumor mass of mice via intratumoral injections (10 mg/ml, 0.1 cc). […] Following intratumoral injections, the sections of subcutaneous Capan-1 and HPAF-II tumors were analyzed for MUC1 carbohydrate staining (FIG. 7B).

The subject of another data set is HPAF-II tumors. Described as above. It is filed as in vivo, SCID mice. To be noted: four intratumoral injections (10 mg/ml, 0.1 cc) at intervals of 48 hr. The protocol:
as §5, §6

Data set [10] concerns U-87 MG cells. To be noted: 72 hr exposure.
Description: In order to determine the contribution of MUC1 expression in the delivery of drugs such as 5-FU to pancreatic tumors, the maximum non-toxic concentration of benzyl-α-GalNAc that could be used to inhibit O-glycosylation of MUC1 was determined from cellular toxicity studies. These cellular toxicity studies were performed as follows. Cells were seeded at 1×10^4 per ml in 48-well plates. Following a 24 hr incubation period at 37° C., cells were exposed to various concentrations of benzyl-α-GalNAc solution (Sigma-Aldrich, St. Louis, Mo.) prepared in media. After 72 hr of cell exposure to benzyl-α-GalNAc, the percent of cell viability was determined using sulforhodamine B assay (Kalra et al., Pharm. Res., 23(12):2809-2817 (2006); Skehan et al., J. Natl. Cancer Inst,. 82:1107-1112 (1990)) and calculated as follows:
In data set [11] the test system is Capan-1, HPAF-II, and U-87 MG cells. In words: Cell morphology by DIC microscopy after benzyl-α-GalNAc exposure. The class given is cell-based, human. Conditions: 72 hr exposure at maximum non-toxic concentration. How it is done: To observe the effects of benzyl-α-GalNAc exposure on cell morphology, differential interference contract (DIC) microscopy was employed. Sterile cover slips were placed in six-well plates (Corning, N.Y.). Capan-1, HPAF-II, and U-87 MG cells were next seeded at 1×10^4 per ml in the same 6-well plates.

Data set [12] concerns U-87 MG cells. In words: Anti-MUC1 (CD227) antibody association after benzyl-α-GalNAc exposure (FACS). The class given is cell-based, human. Conditions: 48 hr exposure. How it is done:
as §4

Where [13] appears, read: 48 hr exposure then fresh media.
[14] abbreviates: 24 hr, 48 hr, or 72 hr exposure at maximum non-toxic concentration.

Regarding `CC(=O)N[C@H]1[C@@H](OCc2ccccc2)O[C@H](CO)[C@H](O)[C@@H]1O` [benzyl-α-GalNAc, benzyl-2-acetamido-2-deoxy-α-D-galactopyranoside], the maximum non-toxic concentration in the data set on Capan-1 cells [1] came to 0.4 mg/mL; in the data set with HPAF-II cells [2], 0.8 mg/mL. Moreover, the “effect on growth post-removal of inhibitor vs untreated controls” value in the data set on Capan-1 cells [3] (0.4 mg/ml for 48 hr, then 24 hr, 48 hr, 72 hr in fresh media) is given as “No significant effect”; in the data set with HPAF-II cells [4] (0.8 mg/ml for 48 hr, then 24 hr, 48 hr, 72 hr in fresh media), “No significant effect”. The “morphology (DIC images) post-removal of inhibitor” value with Capan-1 cells [3] (setting [13]) and with HPAF-II cells [4] (setting [13]) was “no visible morphological changes” each time. For the same compound, the “histochemical staining of tumor sections, neoplastic cells” value in the data set with Capan-1 tumors [5] (H&E stained sections) is “dense packing of neoplastic cells”. The “tumor volume compared to control tumors (saline group)” value with Capan-1 tumors [5] (benzyl-α-GalNAc intratumoral days 4, 6, 8, 10, 5-FU intravenous, total 125 mg/kg) is given as “No difference”. Also, the “Percent Tumor Area (neoplastic cell density as percent of total tumor area)” value in the data set with Capan-1 tumors [5] (bioquant imaging software, tumor sections at end of experiment) is reported as 28.3 ± 1.8%. Also, the “benzyl-α-GalNAc concentration at which decrease of percent cell viability vs 5-FU alone was significant” value with HPAF-II cells [6] was at least 0.4 mg/mL. For the same compound, the “anti-MUC1 (CD227) antibody association, fluorescence intensity vs cells not exposed” value with Capan-1 cells [7] (setting [14]) and with HPAF-II cells [8] (setting [14]) was “significantly enhanced” throughout. Besides, the “FACS analysis of CD227 association vs cells not exposed” value was “shift in fluorescence peaks” in the data set with Capan-1 cells [7] (48 hr exposure), “shift in fluorescence peaks” in the data set on HPAF-II cells [8] (48 hr exposure) and “no shift in peak” in the data set on U-87 MG cells [12]. Further, the “staining for MUC1 O-glycosylation vs tumors not exposed” value in the data set on Capan-1 tumors [9] and with HPAF-II tumors was “Lower staining” each time. The same compound yielded a tolerated concentration in the data set with U-87 MG cells [10] above 0.8 mg/mL. Also, the “morphological structures of cells compared to cells not exposed” value in data set [11] is “no visible difference”.
